The NIST ThermoML archive (doi:10.1016/j.jct.2012.11.002)
Numbers after ± are expanded uncertainties.

Settings: Liquid, Vibrating tube method

**Q.** Which results are given for `COC(=O)C(C)O` (stereo not given) [methyl 2-hydroxypropanoate]?
**A.** mass density (313.15 K, 100 kPa): 1070.85 ± 0.98 kg/m3; mass density (313.15 K, 2500 kPa): 1072.76 ± 0.99 kg/m3; mass density (313.15 K, 5000 kPa): 1074.65 ± 1 kg/m3; mass density (313.15 K, 7500 kPa): 1076.52 ± 1 kg/m3; mass density (313.15 K, 10000 kPa): 1078.39 ± 1 kg/m3; mass density (313.15 K, 20000 kPa): 1085.28 ± 1.1 kg/m3; mass density (313.15 K, 30000 kPa): 1091.84 ± 1.1 kg/m3; mass density (313.15 K, 40000 kPa): 1097.99 ± 1.2 kg/m3; mass density (313.15 K, 50000 kPa): 1103.74 ± 1.2 kg/m3; mass density (313.15 K, 60000 kPa): 1109.24 ± 1.3 kg/m3; mass density (318.15 K, 100 kPa): 1065.11 ± 0.97 kg/m3; mass density (318.15 K, 2500 kPa): 1067.04 ± 0.98 kg/m3; mass density (318.15 K, 5000 kPa): 1068.97 ± 0.99 kg/m3; mass density (318.15 K, 7500 kPa): 1070.94 ± 1 kg/m3; mass density (318.15 K, 10000 kPa): 1072.77 ± 1 kg/m3; mass density (318.15 K, 20000 kPa): 1080.09 ± 1.1 kg/m3; mass density (318.15 K, 30000 kPa): 1086.77 ± 1.1 kg/m3; mass density (318.15 K, 40000 kPa): 1093.08 ± 1.2 kg/m3; mass density (318.15 K, 50000 kPa): 1098.93 ± 1.2 kg/m3; mass density (318.15 K, 60000 kPa): 1104.49 ± 1.3 kg/m3; mass density (323.15 K, 100 kPa): 1059.39 ± 0.96 kg/m3; mass density (323.15 K, 2500 kPa): 1061.4 ± 0.97 kg/m3; mass density (323.15 K, 5000 kPa): 1063.43 ± 0.98 kg/m3; mass density (323.15 K, 7500 kPa): 1065.44 ± 0.99 kg/m3; mass density (323.15 K, 10000 kPa): 1067.34 ± 1 kg/m3; mass density (323.15 K, 20000 kPa): 1074.67 ± 1.1 kg/m3; mass density (323.15 K, 30000 kPa): 1081.41 ± 1.1 kg/m3; mass density (323.15 K, 40000 kPa): 1088 ± 1.2 kg/m3; mass density (323.15 K, 50000 kPa): 1094.04 ± 1.2 kg/m3; mass density (323.15 K, 60000 kPa): 1099.76 ± 1.3 kg/m3; mass density (328.15 K, 100 kPa): 1053.63 ± 0.95 kg/m3; mass density (328.15 K, 2500 kPa): 1055.7 ± 0.96 kg/m3; mass density (328.15 K, 5000 kPa): 1057.77 ± 0.97 kg/m3; mass density (328.15 K, 7500 kPa): 1059.74 ± 0.98 kg/m3; mass density (328.15 K, 10000 kPa): 1061.8 ± 0.99 kg/m3; mass density (328.15 K, 20000 kPa): 1069.41 ± 1 kg/m3; mass density (328.15 K, 30000 kPa): 1076.5 ± 1.1 kg/m3; mass density (328.15 K, 40000 kPa): 1083.15 ± 1.1 kg/m3; mass density (328.15 K, 50000 kPa): 1089.4 ± 1.2 kg/m3; mass density (328.15 K, 60000 kPa): 1095.07 ± 1.3 kg/m3; mass density (333.15 K, 100 kPa): 1047.83 ± 0.94 kg/m3; mass density (333.15 K, 2500 kPa): 1049.97 ± 0.94 kg/m3; mass density (333.15 K, 5000 kPa): 1052.16 ± 0.95 kg/m3; mass density (333.15 K, 7500 kPa): 1054.23 ± 0.96 kg/m3; mass density (333.15 K, 10000 kPa): 1056.23 ± 0.97 kg/m3; mass density (333.15 K, 20000 kPa): 1064.05 ± 1 kg/m3; mass density (333.15 K, 30000 kPa): 1071.33 ± 1.1 kg/m3; mass density (333.15 K, 40000 kPa): 1078.01 ± 1.1 kg/m3; mass density (333.15 K, 50000 kPa): 1084.39 ± 1.2 kg/m3; mass density (333.15 K, 60000 kPa): 1090.37 ± 1.2 kg/m3; mass density (338.15 K, 100 kPa): 1042 ± 0.92 kg/m3; mass density (338.15 K, 2500 kPa): 1044.15 ± 0.93 kg/m3; mass density (338.15 K, 5000 kPa): 1046.35 ± 0.94 kg/m3; mass density (338.15 K, 7500 kPa): 1048.52 ± 0.95 kg/m3; mass density (338.15 K, 10000 kPa): 1050.63 ± 0.96 kg/m3; mass density (338.15 K, 20000 kPa): 1058.63 ± 1 kg/m3; mass density (338.15 K, 30000 kPa): 1066.13 ± 1.1 kg/m3; mass density (338.15 K, 40000 kPa): 1073.12 ± 1.1 kg/m3; mass density (338.15 K, 50000 kPa): 1079.74 ± 1.2 kg/m3; mass density (338.15 K, 60000 kPa): 1085.76 ± 1.2 kg/m3
